According to patent publication US20240246916A1, “7-NITRO-8-HYDROXYQUINOLINE DERIVATIVES, PREPARATION METHOD THEREFORE AND MEDICAL USE THEREOF” (Jiangsu Yahong Meditech Co., Ltd., priority 2021, published 2024):
pIC50: −log10 of the molar value. Converted amounts (≈) assume the structure as drawn.

Assays:
Assay type in all cases: cell-based
[1] = tested on: Staphylococcus aureus (methicillin-resistant and sensitive clinical isolates; ATCC29213); assay: MIC by micro broth dilution (CLSI), Staphylococcus aureus; conditions: for MIC50 / MIC90: Clinical strain; for MIC50: read-out: MIC50; for MIC90: read-out: MIC90; for MIC: Standard strain ATCC29213, read-out: MIC
Outline: (§1)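 CAMHB microdilution; DMSO stocks, range 128–0.06 mg/L; inoculum 10^5 CFU/mL (0.5 McFarland, 1:100); 35±2° C, 20 h, air; CLSI M100 2019 interpretation.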

[2] = MIC by micro broth dilution (CLSI), Klebsiella pneumoniae; conditions: for MIC50 / MIC90: Standard strain; for MIC: Standard strain ATCC43816
Description: The test bacteria were one strain of clinically isolated carbapenem-resistant Escherichia coli, two strains of carbapenem-resistant Acinetobacter baumannii, two strains of methicillin-resistant Staphylococcus aureus, two strains of sensitive Staphylococcus aureus, and 7 strains of Klebsiella pneumoniae. Duplicate strains isolated from the same patient were eliminated. There were also […] quality control strains Escherichia coli ATCC25922, Acinetobacter baumannii ATCC19606, Staphylococcus aureus ATCC29213, Klebsiella pneumoniae ATCC BAA-1705, ATCC 43816, ATCC BAA-2472, ATCC-BAA-1898, ATCC-BAA-1899, NCTC 13440 and ATCC-BAA-2470. There were 24 strains in total.
According to the recommendations of relevant documents of the American Clinical and Laboratory Standards Institute (CLSI), the micro broth dilution method was used to determine the MIC of the compounds of the present invention against clinically isolated strains. • 3.1 Formulation of antibacterial drug: All the compounds of the present invention were dissolved in DMSO. The drug concentration range was 128 mg/L to 0.06 mg/L. • 3.2 Culture medium: The drug susceptibility test used cation adjusted Mueller-Hinton broth (CAMHB). • 3.3 Amount of inoculum: The test bacteria cultured overnight were adjusted to 0.5 McFarland turbidity by the direct colony suspension method, and diluted 100 folds, the final inoculum amount was 10^5 CFU/mL. • 3.4 Culture conditions: The test bacteria were cultured at 35±2° C. for 20 hours in air.
The drug susceptibility test results were interpretated by reference to CLSI 2019 M100 29th edition criteria.
The quality control strains of the drug susceptibility test were Escherichia coli ATCC 25922, Acinetobacter baumannii ATCC 19606, Staphylococcus aureus ATCC 29213, Klebsiella pneumoniae ATCC BAA-1705, ATCC 43816, ATCC BAA-2472, ATCC-BAA-1898, ATCC-BAA-1899, NCTC 13440 and ATCC-BAA-2470.
The results of drug susceptibility test were statistically analyzed by WHONET software (version 5.6).

[3] = tested on: Escherichia coli (carbapenem-resistant clinical isolate; ATCC25922); assay: MIC by micro broth dilution (CLSI), Escherichia coli; conditions: Escherichia coli; for MIC50 / MIC90: ATCC25922, Clinical strain; for MIC50: read-out: MIC50; for MIC90: read-out: MIC90; for MIC: Standard strain ATCC25922, read-out: MIC
Outline: as §1

[4] = tested on: Acinetobacter baumannii (carbapenem-resistant clinical isolates; ATCC19606); assay: MIC by micro broth dilution (CLSI), Acinetobacter baumannii; conditions: Acinetobacter baumannii; for MIC50 / MIC90: ATCC19606, Clinical strain; for MIC50: read-out: MIC50; for MIC90: read-out: MIC90; for MIC: Standard strain ATCC19606, read-out: MIC
Outline: as §1

[5] = tested on: Bladder cancer cell line UM-UC-3; assay: Inhibitory activity on cancer cells, CellTiter-Glo viability, UM-UC-3; conditions: Homo sapiens, UMUC3, 72 hours treatment
Outline: (§2)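 24 h attachment; HUVEC 2000, UM-UC-3/RM-1 3000, LNCaP 5000 cells/well. 8-pt 2.5× dilution from 100 μmol, 72 h, 37 °C/5% CO2. CellTiter-Glo; IC50 from curve fit; max = cells + DMSO vehicle, min = medium only.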

[6] = tested on: Prostate cancer cell line LNcaP; assay: Inhibitory activity on cancer cells, CellTiter-Glo viability, LNcaP; conditions: Homo sapiens, 72 hours treatment
Outline: as §2

[7] = tested on: Endothelial cell line HUVEC; assay: Inhibitory activity on cells, CellTiter-Glo viability, HUVEC; conditions: Homo sapiens, 72 hours treatment
Outline: as §2

[8] = tested on: Mouse prostate cancer cell line RM1; assay: Inhibitory activity on cancer cells, CellTiter-Glo viability, RM1; conditions: 72 hours treatment
Outline: as §2

Structure (SMILES) | MIC50 [1] [µg/mL] | MIC90 [1] [µg/mL] | MIC50 [2] [µg/mL] | MIC90 [2] [µg/mL] | MIC50 [3] [µg/mL] | MIC90 [3] [µg/mL] | MIC50 [4] [µg/mL] | MIC90 [4] [µg/mL] | pIC50 [5] | MIC [1] [µg/mL] | pIC50 [6] | pIC50 [8] | MIC [3] [µg/mL] | MIC [4] [µg/mL] | MIC [2] [µg/mL] | pIC50 [7]
O=[N+]([O-])c1ccc2ccc(F)nc2c1O [Example 5, 2-Fluoro-7-nitroquinolin-8-ol] | 64 (≈ 307 µM) | 64 (≈ 307 µM) | > 64 | > 64 | 32 (≈ 154 µM) | 32 (≈ 154 µM) | > 64 | > 64 |  |  |  |  |  |  |  | 
O=[N+]([O-])c1ccc2c(C3CC3)ccnc2c1O [Example 11, 4-Cyclopropyl-7-nitroquinolin-8-ol] | 8 (≈ 34.7 µM) | 8 (≈ 34.7 µM) | 64 (≈ 278 µM) | 64 (≈ 278 µM) | 8 (≈ 34.7 µM) | 128 (≈ 556 µM) | 16 (≈ 69.5 µM) | 128 (≈ 556 µM) | 5.57 | 4 (≈ 17.4 µM) | 5.78 | 5.47 | > 128 | > 128 |  | 5.53
Cc1ccc2ccc([N+](=O)[O-])c(O)c2n1 [Example 6, 2-Methyl-7-nitroquinolin-8-ol] | 64 (≈ 313 µM) | 64 (≈ 313 µM) | > 64 | > 64 | 64 (≈ 313 µM) | 64 (≈ 313 µM) | > 64 | > 64 |  |  |  |  |  |  |  | 
O=[N+]([O-])c1ccc(O)c2ncccc12 [Nitroxoline, nitroxoline, reference compound] | 4 (≈ 21 µM) | 4 (≈ 21 µM) | 8 (≈ 42.1 µM) | 16 (≈ 84.1 µM) | 8 (≈ 42.1 µM) | 16 (≈ 84.1 µM) | 4 (≈ 21 µM) | 4 (≈ 21 µM) | 5.04 | 4 (≈ 21 µM) | 5.29 | 5.37 | 4 (≈ 21 µM) | 2 (≈ 10.5 µM) | 4 (≈ 21 µM) | 5.35
Cc1cc2cccnc2c(O)c1[N+](=O)[O-] [Example 2, 6-Methyl-7-nitroquinolin-8-ol] | 4 (≈ 19.6 µM) | 4 (≈ 19.6 µM) | 32 (≈ 157 µM) | 64 (≈ 313 µM) | 16 (≈ 78.4 µM) | 64 (≈ 313 µM) | 8 (≈ 39.2 µM) | 8 (≈ 39.2 µM) | 5.41 |  | 5.22 |  | 8 (≈ 39.2 µM) |  |  | 5.15
Cc1cnc2c(O)c([N+](=O)[O-])ccc2c1 [Example 8, 3-Methyl-7-nitroquinolin-8-ol] | 8 (≈ 39.2 µM) | 8 (≈ 39.2 µM) | 32 (≈ 157 µM) | 32 (≈ 157 µM) | 4 (≈ 19.6 µM) | 4 (≈ 19.6 µM) | 8 (≈ 39.2 µM) | 16 (≈ 78.4 µM) | 5.42 |  | 5.03 | 5.50 |  |  |  | 5.24

Second part, led by results:

MIC50 [1] [µg/mL] | MIC90 [1] [µg/mL] | MIC50 [2] [µg/mL] | MIC90 [2] [µg/mL] | MIC50 [3] [µg/mL] | MIC90 [3] [µg/mL] | MIC50 [4] [µg/mL] | MIC90 [4] [µg/mL] | pIC50 [5] | MIC [1] [µg/mL] | pIC50 [6] | pIC50 [8] | MIC [3] [µg/mL] | MIC [4] [µg/mL] | MIC [2] [µg/mL] | Structure (SMILES) | pIC50 [7]
> 64 | > 64 | 64 (≈ 297 µM) | > 64 | > 64 | > 64 | > 64 | > 64 |  |  |  |  |  |  |  | N#Cc1cc([N+](=O)[O-])c(O)c2ncccc12 [Example 9, 8-Hydroxy-7-nitroquinoline-5-carbonitrile] | 
16 (≈ 78.4 µM) | 16 (≈ 78.4 µM) | > 64 | > 64 | 32 (≈ 157 µM) | 32 (≈ 157 µM) | 32 (≈ 157 µM) | 64 (≈ 313 µM) |  |  |  |  |  |  |  | Cc1ccnc2c(O)c([N+](=O)[O-])ccc12 [Example 10, 4-Methyl-7-nitroquinolin-8-ol] | 
4 (≈ 21 µM) | 4 (≈ 21 µM) | 16 (≈ 84.1 µM) | 64 (≈ 337 µM) | 16 (≈ 84.1 µM) | 16 (≈ 84.1 µM) | 4 (≈ 21 µM) | 8 (≈ 42.1 µM) | 5.03 |  | 4.96 | 5.09 | 8 (≈ 42.1 µM) | 16 (≈ 84.1 µM) | 8 (≈ 42.1 µM) | O=[N+]([O-])c1ccc2cccnc2c1O [Example 1, 7-Nitroquinolin-8-ol] | 4.83
 |  | > 64 | > 64 |  |  | > 64 | > 64 |  |  |  |  |  |  |  | O=[N+]([O-])c1cc(I)c2cccnc2c1O [Example 3, 5-Iodo-7-nitroquinolin-8-ol] | 
